This passage reports IC50 results from US20260158017A1, “KIF18A INHIBITOR” (WIGEN BIOMEDICINE TECHNOLOGY (SHANGHAI) CO., LTD., priority 2021, published 2026).

As a reminder, the IC50 is the concentration needed to halve the response being measured.

T1 sequence (Q8NI77 1-467): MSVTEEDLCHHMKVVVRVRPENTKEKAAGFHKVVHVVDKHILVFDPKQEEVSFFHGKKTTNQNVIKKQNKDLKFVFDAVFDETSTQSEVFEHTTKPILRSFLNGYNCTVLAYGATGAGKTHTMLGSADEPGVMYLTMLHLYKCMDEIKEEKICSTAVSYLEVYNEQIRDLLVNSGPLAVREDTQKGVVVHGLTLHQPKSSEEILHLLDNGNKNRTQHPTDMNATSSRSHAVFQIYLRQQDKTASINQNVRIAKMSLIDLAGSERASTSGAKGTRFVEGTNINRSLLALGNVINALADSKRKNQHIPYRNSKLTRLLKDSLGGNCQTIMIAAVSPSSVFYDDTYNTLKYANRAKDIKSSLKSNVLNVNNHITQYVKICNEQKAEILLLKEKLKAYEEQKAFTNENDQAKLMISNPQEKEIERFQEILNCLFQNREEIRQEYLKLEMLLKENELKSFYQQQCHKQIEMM
T1 sequence (P02550 whole entry partner): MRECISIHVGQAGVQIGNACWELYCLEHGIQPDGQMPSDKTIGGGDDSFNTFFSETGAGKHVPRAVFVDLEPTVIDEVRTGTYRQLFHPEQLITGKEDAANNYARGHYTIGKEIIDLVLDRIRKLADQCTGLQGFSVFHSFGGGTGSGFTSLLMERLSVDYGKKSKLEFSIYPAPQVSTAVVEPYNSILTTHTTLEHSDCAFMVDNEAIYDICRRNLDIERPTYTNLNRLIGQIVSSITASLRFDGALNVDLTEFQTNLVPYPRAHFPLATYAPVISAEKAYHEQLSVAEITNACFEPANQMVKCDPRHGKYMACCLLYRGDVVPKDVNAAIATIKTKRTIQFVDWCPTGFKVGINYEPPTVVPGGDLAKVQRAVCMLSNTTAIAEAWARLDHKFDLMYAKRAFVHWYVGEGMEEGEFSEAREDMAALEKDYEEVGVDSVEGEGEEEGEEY
T1 sequence (P02554 whole entry partner): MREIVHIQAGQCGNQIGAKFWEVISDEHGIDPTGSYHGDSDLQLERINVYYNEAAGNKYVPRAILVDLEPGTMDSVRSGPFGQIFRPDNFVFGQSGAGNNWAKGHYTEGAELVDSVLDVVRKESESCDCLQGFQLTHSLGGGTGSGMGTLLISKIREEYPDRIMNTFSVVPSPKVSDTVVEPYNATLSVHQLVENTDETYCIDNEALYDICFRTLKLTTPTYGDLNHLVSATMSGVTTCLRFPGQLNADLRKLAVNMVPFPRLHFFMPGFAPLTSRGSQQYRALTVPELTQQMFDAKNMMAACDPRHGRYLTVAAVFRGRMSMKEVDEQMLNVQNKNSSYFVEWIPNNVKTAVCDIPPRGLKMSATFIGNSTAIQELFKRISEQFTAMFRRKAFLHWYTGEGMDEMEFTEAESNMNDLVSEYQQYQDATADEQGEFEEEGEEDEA

The assay has as its target T1, Recombinant human KIF18A (1-467His-tagged) protein (Homo sapiens, UniProt Q8NI77).
T1 construct: Recombinant human KIF18A (1-467His-tagged) protein; His; made in house
Description: KIF18A enzyme assay (microtubule-stimulated ATPase activity, ADP-Glo). Format: biochemical. As to conditions: 30 nM KIF18A, 75 μM ATP, 30 μg/mL pig microtubules; read-out: Inhibitory activity against KIF18A IC50. The method in brief:
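Buffer 15 mM Tris pH 7.5, 10 mM MgCl2, 0.01% Pluronic F-68, 1 μM paclitaxel, 30 μg/mL pig microtubules; reactions at room temperature. IC50 from inhibition relative to DMSO.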
For orientation: ADP-Glo turns the ADP formed in a reaction into a luminescent signal.
For `O=C(Nc1ccc([N+](=O)[O-])c(N2CCOCC2)n1)c1cnc(NS(=O)(=O)CCO)cc1N1CCC2(CC1)CC2` [Compound 140], the half-inhibitory concentration (IC50) was ≤ 100 nM.
`C[C@H](CO)NS(=O)(=O)c1cc(N2CCC3(CC2)CC3)c(NC(=O)c2ccc([N+](=O)[O-])c(N3CCC(F)(F)CC3)n2)cn1` [Compound 254]: the half-inhibitory concentration (IC50) lay within 100 to 500 nM.
Next, `O=C(Nc1ccc([N+](=O)[O-])c(N2CC(F)(F)C2)c1)c1ccc(S(=O)(=O)NCCO)cc1N1CCC2(CC1)CC2` [Compound 20]: ≤ 100 nM; `O=C(Nc1ccc([N+](=O)[O-])c(N2CCC(F)CC2)c1)c1cnc(S(=O)(=O)NCCO)cc1N1CCC2(CC1)CC2` [Compound 121]: ≤ 100 nM.
Next, `C[C@H](CO)NS(=O)(=O)c1ccc(C(=O)Nc2ccc([N+](=O)[O-])c(N3CCC(F)(F)CC3)c2)c(N2CCC3(CC2)CC3)c1` [Compound 30]: ≤ 100 nM.
Consider `COc1ccc(C(=O)Nc2cnc(S(=O)(=O)NCCO)cc2N2CCC3(CC2)CC3)nc1N1CCC(F)(F)CC1` [Compound 369], for which the concentration for half-maximal inhibition (IC50) was ≤ 100 nM.
The result for `C[C@H](CO)NS(=O)(=O)c1cc(N2CCC3(CC2)CC3)c(NC(=O)c2ccc([N+](=O)[O-])c(N3CCC(F)(F)CC3)c2)cn1` [Compound 222] reads 100 to 500 nM; that for `O=C(Nc1ccc(OCF)c(OC2CCC2)n1)c1ccc(NS(=O)(=O)CCO)cc1N1CCC2(CC1)CC2` [Compound 423], ≤ 100 nM.
Regarding `COc1ccc(NC(=O)c2ccc(S(=O)(=O)NCCO)cc2N2CCC3(CC2)CC3)nc1N1CCC(F)CC1` [Compound 281], the IC50 was ≤ 100 nM.
As to `O=C(Nc1ccc([N+](=O)[O-])c(N2CCC(F)CC2)c1)c1cnc(NS(=O)(=O)CCO)cc1N1CCC2(CC1)CC2` [Compound 105], the half-inhibitory concentration (IC50) is ≤ 100 nM.
Consider `COc1ccc(NC(=O)c2cnc(NS(=O)(=O)CCO)cc2N2CCC3(CC2)CC3)nc1N1CC2CC2C1` (stereo not drawn) [Compound 298], for which the concentration for half-maximal inhibition (IC50) is ≤ 100 nM.
Next, `O=C(Nc1ccc(S(=O)(=O)NCCO)cc1N1CCC2(CC1)CC2)c1ccc(OCF)c(OC2CCC2)n1` [Compound 567]: 100 to 500 nM.
The result for `O=C(Nc1ccc(NS(=O)(=O)CCO)cc1N1CCC2(CC1)CC2)c1ccc([N+](=O)[O-])c(N2CCC(F)CC2)c1` [Compound 41] reads ≤ 100 nM; that for `O=C(Nc1cnc(S(=O)(=O)NCCO)cc1N1CCC2(CC1)CC2)c1ccc([N+](=O)[O-])c(N2CC3CC3C2)c1` (stereo not drawn) [Compound 218], 100 to 500 nM.
As for `CSc1ccc(NC(=O)c2ccc(NS(=O)(=O)[C@@H](C)CO)cc2N2CCC3(CC2)CC3)cc1N1CCC(F)(F)CC1` [Compound 589], the half-inhibitory concentration (IC50) is ≤ 100 nM.
For the compound `C[C@H](CO)NS(=O)(=O)c1ccc(NC(=O)c2ccc([N+](=O)[O-])c(N3CCC(F)(F)CC3)c2)c(N2CCC3(CC2)CC3)c1` [Compound 62], the IC50 lay within 100 to 500 nM.
As for `O=C(Nc1ccc([N+](=O)[O-])c(N2CCC(F)(F)CC2)n1)c1ccc(S(=O)(=O)NCCO)cc1N1CCC2(CC1)CC2` [Compound 81], the 50% inhibitory concentration (IC50) was ≤ 100 nM.
Take `CC(C)(CO)Nc1cc(NC(=O)c2cnc(NS(=O)(=O)CCO)cc2N2CCC3(CC2)CC3)ccc1[N+](=O)[O-]` [Compound 107]: the half-inhibitory concentration (IC50) is ≤ 100 nM.
Consider `C[C@H](CO)NS(=O)(=O)c1cc(N2CCC3(CC2)CC3)c(C(=O)Nc2ccc(OCF)c(N3CCO[C@H](C)C3)c2)cn1` [Compound 480], for which the IC50 is ≤ 100 nM.
The result for `COc1ccc(C(=O)Nc2cnc(S(=O)(=O)NCCO)cc2N2CCC3(CC2)CC3)nc1N1CCOCC1` [Compound 380] reads ≤ 100 nM; that for `COc1ccc(C(=O)Nc2ccc(S(=O)(=O)NCCO)cc2N2CCC3(CC2)CC3)nc1N1CCO[C@H](C)C1` [Compound 338], ≤ 100 nM; that for `CC(C)(CO)Nc1cc(NC(=O)c2ccc(NS(=O)(=O)CCO)cc2N2CCC3(CC2)CC3)ccc1OCF` [Compound 395], ≤ 100 nM.
As to `COc1ccc(NC(=O)c2ccc(S(=O)(=O)NCCO)cc2N2CCC3(CC2)CC3)nc1N1CCC2(CC2)C1` [Compound 278], the IC50 is ≤ 100 nM.
In the case of `C[C@@H](CO)S(=O)(=O)Nc1ccc(NC(=O)c2ccc([N+](=O)[O-])c(N3CCC(F)(F)CC3)n2)c(N2CCC3(CC2)CC3)c1` [Compound 173], the IC50 is ≤ 100 nM.
The result for `CSc1ccc(NC(=O)c2ccc(NS(=O)(=O)CCO)cc2N2CCC3(CC2)CC3)cc1N1CC(F)(F)C1` [Compound 580] reads ≤ 100 nM.
For the compound `C[C@@H]1CN(c2nc(NC(=O)c3ccc(S(=O)(=O)N[C@@H](C)CO)cc3N3CCC4(CC3)CC4)ccc2OCF)CCO1` [Compound 447], the IC50 is ≤ 100 nM.
Next, `CSc1ccc(NC(=O)c2cnc(NS(=O)(=O)CCO)cc2N2CCC3(CC2)CC3)cc1NC(C)(C)CO` [Compound 619]: ≤ 100 nM.
Turning to `COc1ccc(C(=O)Nc2cnc(NS(=O)(=O)[C@H](C)CO)cc2N2CCC3(CC2)CC3)nc1N1CCO[C@H](C)C1` [Compound 384], the IC50 was ≤ 100 nM.
With `O=C(Nc1ccc([N+](=O)[O-])c(N2CC(F)(F)C2)n1)c1cnc(NS(=O)(=O)CCO)cc1N1CCC2(CC1)CC2` [Compound 132], the half-maximal inhibitory concentration (IC50) was ≤ 100 nM.
Next, `CC1(F)CCN(c2cc(NC(=O)c3cnc(S(=O)(=O)NCCO)cc3N3CCC4(CC3)CC4)ccc2OCF)C1` (stereo not drawn) [Compound 472]: ≤ 100 nM.
For `COc1ccc(NC(=O)c2cnc(S(=O)(=O)NCCO)cc2N2CCC3(CC2)CC3)nc1OC1CCC1` [Compound 311], the IC50 was ≤ 100 nM.
Consider `CC1(F)CCN(c2nc(NC(=O)c3ccc(S(=O)(=O)NCCO)cc3N3CCC4(CC3)CC4)ccc2OCF)C1` (stereo not drawn) [Compound 440], for which the IC50 was ≤ 100 nM.
Regarding `CSc1ccc(NC(=O)c2cnc(NS(=O)(=O)CCO)cc2N2CCC3(CC2)CC3)nc1N1CCOCC1` [Compound 636], the concentration for half-maximal inhibition (IC50) was ≤ 100 nM.
`C[C@H]1CN(c2nc(C(=O)Nc3ccc(S(=O)(=O)NCCO)cc3N3CCC4(CC3)CC4)ccc2OCF)CCO1` [Compound 563]: the IC50 lay in the range of 100 to 500 nM.
Next, `COc1ccc(C(=O)Nc2ccc(NS(=O)(=O)[C@H](C)CO)cc2N2CCC3(CC2)CC3)nc1N1CCC(F)(F)CC1` [Compound 334]: ≤ 100 nM; `O=C(Nc1ccc([N+](=O)[O-])c(N2CCC3(CC3)C2)n1)c1ccc(NS(=O)(=O)CCO)cc1N1CCC2(CC1)CC2` [Compound 70]: ≤ 100 nM.
Turning to `O=C(Nc1ccc(S(=O)(=O)NCCO)cc1N1CCC2(CC1)CC2)c1ccc([N+](=O)[O-])c(N2CCOCC2)n1` [Compound 188], the IC50 was in the range of 100 to 500 nM.
The result for `O=C(Nc1ccc([N+](=O)[O-])c(N2CCOCC2)c1)c1cnc(NS(=O)(=O)CCO)cc1N1CCC2(CC1)CC2` [Compound 108] reads ≤ 100 nM; that for `COc1ccc(NC(=O)c2ccc(S(=O)(=O)NCCO)cc2N2CCC3(CC2)CC3)nc1N1CCOCC1` [Compound 284], ≤ 100 nM; that for `C[C@@H](CO)S(=O)(=O)Nc1cc(N2CCC3(CC2)CC3)c(C(=O)Nc2ccc([N+](=O)[O-])c(N3CCC(F)(F)CC3)c2)cn1` [Compound 109], ≤ 100 nM.
The result for `COc1ccc(C(=O)Nc2ccc(S(=O)(=O)NCCO)cc2N2CCC3(CC2)CC3)nc1N1CC(F)(F)C1` [Compound 340] reads ≤ 100 nM; that for `CC(C)(CO)Nc1cc(C(=O)Nc2ccc(S(=O)(=O)NCCO)cc2N2CCC3(CC2)CC3)ccc1OCF` [Compound 539], 100 to 500 nM; that for `O=C(Nc1ccc(OCF)c(N2CCOCC2)c1)c1cnc(NS(=O)(=O)CCO)cc1N1CCC2(CC1)CC2` [Compound 460], ≤ 100 nM.
The result for `COc1ccc(C(=O)Nc2ccc(S(=O)(=O)N[C@@H](C)CO)cc2N2CCC3(CC2)CC3)nc1N1CCC(F)(F)CC1` [Compound 349] reads ≤ 100 nM.
On to `O=C(Nc1ccc(OCF)c(OCCC(F)(F)F)n1)c1ccc(S(=O)(=O)NCCO)cc1N1CCC2(CC1)CC2` [Compound 437], for which the half-inhibitory concentration (IC50) was ≤ 100 nM.
The result for `C[C@H](CO)NS(=O)(=O)c1ccc(C(=O)Nc2ccc(OCF)c(N3CCC(F)(F)CC3)c2)c(N2CCC3(CC2)CC3)c1` [Compound 414] reads ≤ 100 nM.
`O=C(Nc1ccc(NS(=O)(=O)CCO)cc1N1CCC2(CC1)CC2)c1ccc([N+](=O)[O-])c(N2CCOCC2)n1` [Compound 172]: the IC50 was ≤ 100 nM.
Next, `O=C(Nc1ccc(NS(=O)(=O)CCO)cc1N1CCC2(CC1)CC2)c1ccc(OCF)c(N2CCC(F)(F)CC2)n1` [Compound 545]: ≤ 100 nM.
In the case of `O=C(Nc1ccc(S(=O)(=O)NCCO)cc1N1CCC2(CC1)CC2)c1ccc(OCF)c(N2CCC(F)CC2)n1` [Compound 569], the half-inhibitory concentration (IC50) fell in the range of 100 to 500 nM.
In the case of `O=C(Nc1ccc(OCF)c(N2CCOCC2)n1)c1ccc(NS(=O)(=O)CCO)cc1N1CCC2(CC1)CC2` [Compound 428], the IC50 is ≤ 100 nM.
As to `C[C@@H]1CN(c2cc(NC(=O)c3ccc(NS(=O)(=O)CCO)cc3N3CCC4(CC3)CC4)ccc2[N+](=O)[O-])CCO1` [Compound 2], the half-maximal inhibitory concentration (IC50) was ≤ 100 nM.
As to `O=C(Nc1ccc([N+](=O)[O-])c(N2CC3CC3C2)n1)c1ccc(S(=O)(=O)NCCO)cc1N1CCC2(CC1)CC2` (stereo not drawn) [Compound 90], the IC50 was ≤ 100 nM.
The result for `O=C(Nc1ccc(NS(=O)(=O)CCO)cc1N1CCC2(CC1)CC2)c1ccc([N+](=O)[O-])c(N2CC(F)(F)C2)c1` [Compound 36] reads ≤ 100 nM.
Consider `C[C@@H](CO)S(=O)(=O)Nc1ccc(NC(=O)c2ccc(OCF)c(N3CCC(F)(F)CC3)c2)c(N2CCC3(CC2)CC3)c1` [Compound 525], for which the half-inhibitory concentration (IC50) was ≤ 100 nM.
With `C[C@@H](CO)NS(=O)(=O)c1ccc(NC(=O)c2ccc([N+](=O)[O-])c(N3CCC(F)(F)CC3)c2)c(N2CCC3(CC2)CC3)c1` [Compound 61], the concentration for half-maximal inhibition (IC50) was 100 to 500 nM.
Consider `C[C@H](CO)S(=O)(=O)Nc1ccc(C(=O)Nc2ccc(OCF)c(N3CCC(F)(F)CC3)c2)c(N2CCC3(CC2)CC3)c1` [Compound 398], for which the concentration for half-maximal inhibition (IC50) was ≤ 100 nM.
Next, `COc1ccc(NC(=O)c2cnc(S(=O)(=O)NCCO)cc2N2CCC3(CC2)CC3)nc1N1CCC(C)(F)C1` (stereo not drawn) [Compound 312]: ≤ 100 nM.
